Assay results taken from patent US9630957B2, “2,3-butanediamide epoxide compound and preparation method and use thereof” (Institute of Pharmacology and Toxicology Academy of …, priority 2014, dated 2017).
Converted amounts (≈) assume the structure as drawn.

Key:
[1] = tested on: enterovirus EV71 (BrCr strain); experiment: Activity screening for anti-enterovirus EV71: inhibition of cytopathic effect in Vero cells; assay type: cell-based; conditions: for IC50: 100TCID50, Vero cells, CPE read when virus control reaches 4+, read-out: IC50 (half inhibitory concentration for enterovirus EV71); for SI (Selectivity Index = TC50/IC50): Vero cells
Description: Test item: Activity screening of the compounds for anti-enterovirus EV71
Test principle: Vero cells are used as viral host. The inhibition of the compound of the invention on the degree of cytopathic effect of Vero cells caused by enterovirus virus EV71 is determined.
1. Virus strain: enterovirus EV71 (BrCr, American Type Culture Collection, ATCC)
(§1) 2. Sample treatment: the compounds of the present invention are dissolved in DMSO or diluent to prepare stock solution which is stored at −20° C. The stock solution is formulated to suitable incipient concentration with culture solution immediately before use, and then 3-fold diluted with the culture solution, 8 degrees of dilution each.
3. Positive control drug: Pirodavir (LGM Pharma), which is a broad-spectrum anti-viral inhibitor.
(§2) 4. Test Method: Vero cells are seeded into a 96-well culture plate, at 5% CO2, and cultured at 37° C. for 16 hours. The Vero cells are added with different dilutions of drugs, and the degree of cytopathic effect (CPE) in each group is observed. The half toxic concentration (TC50) of each sample for Vero cells is calculated. Vero cells are added with 100TCID50 enterovirus EV71 respectively, and the virus solution is discarded after adsorption at 37° C. for 1 hour, and then drugs with various degrees of dilution are added respectively. Virus control and cell control are set and incubated at 37° C. The degree of cytopathic effect (CPE) in each group is observed when the degree of cytopathic effect (CPE) of virus control group reaches 4+. The half inhibitory concentration (IC50) of each sample for enterovirus EV71 are calculated. Selectivity Index (SI) is calculated according to the following equation: SI=TC50/IC50.

Vero cells = experiment: Cytotoxicity of the compounds for Vero cells (CPE observation, TC50); assay type: cell-based; conditions: no virus
Description: as §1, §2

IC50 [1] [µg/mL] | melting point [°C] | SMILES | TC50 (half toxic concentration for Vero cells) (Vero cells) [µg/mL] | SI (Selectivity Index = TC50/IC50) [1]
> 2.47 | 156.5 to 157.2 | COc1ccc(NC(=O)[C@H]2O[C@@H]2C(=O)N(Cc2ccccc2)c2ccccc2)cc1OC [Compound 1, (2S,3S)—N^2-benzyl-N^2-phenyl-N^3-(3,4-dimethoxyphenyl)-2,3-epoxybutanediamide] | 10.68 | –
2.47 (≈ 6.51 µM) | 146.6 to 147.4 | O=C(Nc1nccs1)[C@H]1O[C@@H]1C(=O)N(Cc1ccccc1)c1ccccc1 [Compound 2, (2S,3S)—N^2-benzyl-N^2-phenyl-N^3-(2-thiazolyl)-2,3-epoxybutanediamide] | 10.68 | 4.32
2.47 (≈ 5.6 µM) | 174.5 to 175.7 | O=C(Nc1ccc(Cl)c(Cl)c1)[C@H]1O[C@@H]1C(=O)N(Cc1ccccc1)c1ccccc1 [Compound 3, (2S,3S)—N^2-benzyl-N^2-phenyl-N^3-(3,4-dichlorophenyl)-2,3-epoxybutanediamide] | 5.14 | 2.08
2.47 (≈ 6.33 µM) | 180.5 to 182 | O=C(Nc1cccc(F)c1)[C@H]1O[C@@H]1C(=O)N(Cc1ccccc1)c1ccccc1 [Compound 4, (2S,3S)—N^2-benzyl-N^2-phenyl-N^3-(3-fluorophenyl)-2,3-epoxybutanediamide] | 7.41 | 3.00
2.47 (≈ 6.33 µM) | 153.8 to 154.7 | O=C(Nc1ccc(F)cc1)[C@H]1O[C@@H]1C(=O)N(Cc1ccccc1)c1ccccc1 [Compound 5, (2S,3S)—N^2-benzyl-N^2-phenyl-N^3-(4-fluorophenyl)-2,3-epoxybutanediamide] | 10.68 | 4.32
0.82 (≈ 2.1 µM) | 139.2 to 140.3 | O=C(Nc1ccccc1F)[C@H]1O[C@@H]1C(=O)N(Cc1ccccc1)c1ccccc1 [Compound 6, (2S,3S)—N^2-benzyl-N^2-phenyl-N^3-(2-fluorophenyl)-2,3-epoxybutanediamide] | 4.28 | 5.22
0.27 (≈ 0.671 µM) | 130.7 to 131.7 | COc1cccc(NC(=O)[C@H]2O[C@@H]2C(=O)N(Cc2ccccc2)c2ccccc2)c1 [Compound 7, (2S,3S)—N^2-benzyl-N^2-phenyl-N^3-(3-methoxyphenyl)-2,3-epoxybutanediamide] | 4.28 | 15.85
0.27 (≈ 0.664 µM) | 179.2 to 179.6 | O=C(Nc1cccc(Cl)c1)[C@H]1O[C@@H]1C(=O)N(Cc1ccccc1)c1ccccc1 [Compound 8, (2S,3S)—N^2-benzyl-N^2-phenyl-N^3-(3-chlorophenyl)-2,3-epoxybutanediamide] | 4.28 | 15.85
0.82 (≈ 1.96 µM) | 160.2 to 161.3 | O=C(Nc1ccc([N+](=O)[O-])cc1)[C@H]1O[C@@H]1C(=O)N(Cc1ccccc1)c1ccccc1 [Compound 9, (2S,3S)—N^2-benzyl-N^2-phenyl-N^3-(4-nitrophenyl)-2,3-epoxybutanediamide] | 4.28 | 5.22
0.15 (≈ 0.34 µM) | 115.7 to 115.8 | O=C(Nc1cccc(Cl)c1Cl)[C@H]1O[C@@H]1C(=O)N(Cc1ccccc1)c1ccccc1 [Compound 10, (2S,3S)—N^2-benzyl-N^2-phenyl-N^3-(2,3-dichlorophenyl)-2,3-epoxybutanediamide] | 1.43 | 9.53
0.15 (≈ 0.369 µM) | 117.3 to 118.2 | O=C(Nc1ccccc1Cl)[C@H]1O[C@@H]1C(=O)N(Cc1ccccc1)c1ccccc1 [Compound 11, (2S,3S)—N^2-benzyl-N^2-phenyl-N^3-(2-chlorophenyl)-2,3-epoxybutanediamide] | 1.43 | 9.53
0.23 (≈ 0.565 µM) | 175.2 to 175.8 | O=C(Nc1ccc(Cl)cc1)[C@H]1O[C@@H]1C(=O)N(Cc1ccccc1)c1ccccc1 [Compound 12, (2S,3S)—N^2-benzyl-N^2-phenyl-N^3-(4-chlorophenyl)-2,3-epoxybutanediamide] | 10.68 | 46.43
> 0.27 | 119.4 to 120.2 | Cc1c(Cl)cccc1NC(=O)[C@H]1O[C@@H]1C(=O)N(Cc1ccccc1)c1ccccc1 [Compound 13, (2S,3S)—N^2-benzyl-N^2-phenyl-N^3-(2-methyl-3-chlorophenyl)-2,3-epoxybutanediamide] | 1.19 | –
1.43 (≈ 3.17 µM) | 177.5 to 178.2 | O=C(Nc1cccc(Br)c1)[C@H]1O[C@@H]1C(=O)N(Cc1ccccc1)c1ccccc1 [Compound 14, (2S,3S)—N^2-benzyl-N^2-phenyl-N^3-(3-bromophenyl)-2,3-epoxybutanediamide] | 12.83 | 8.97
0.47 (≈ 1.04 µM) | 113.2 to 114.3 | O=C(Nc1ccccc1Br)[C@H]1O[C@@H]1C(=O)N(Cc1ccccc1)c1ccccc1 [Compound 15, (2S,3S)—N^2-benzyl-N^2-phenyl-N^3-(2-bromophenyl)-2,3-epoxybutanediamide] | 1.43 | 3.04
> 2.47 | 200.6 to 201.3 | O=C(Nc1nc2ccccc2s1)c1ccc(N(Cc2ccc(F)cc2)C(=O)[C@H]2O[C@@H]2C(=O)O)cc1 [Compound 16, (2S,3S)-3-((4-(benzo[d]thiazol-2-ylcarbamoyl)phenyl)(4-fluorobenzyl)carbamoyl)oxirane-2-carboxylic acid] | 17.25 | –
38.5 (≈ 61.4 µM) | 205.6 to 206.3 | COc1ccc(NC(=O)[C@H]2O[C@@H]2C(=O)N(Cc2ccc(F)cc2)c2ccc(C(=O)Nc3nc4ccccc4s3)cc2)cc1OC [Compound 17, (2S,3S)—N^2-(4-(benzo[d]thiazol-2-ylcarbamoyl)phenyl)-N^3-(3,4-dimethoxyphenyl)-N^2-(4-fluorobenzyl)-2,3-epoxybutanediamide] | 115.47 | 3.00
> 0.82 | – | COC(=O)c1cnc(NC(=O)[C@H]2O[C@@H]2C(=O)N(Cc2ccccc2)c2ccc(C(=O)Nc3nc4ccccc4s3)cc2)s1 [Compound 42, (2S,3S)—N^2-(4-(benzo[d]thiazol-2-ylcarbamoyl)phenyl)-N^2-benzyl-N^3-(5-methoxycarbonylthiazol-2-yl)-2,3-epoxybutanediamide] | 4.28 | –
0.13 (≈ 0.352 µM) | – | CCOC(=O)c1ccc(OCCC2CCN(c3ccc(C)nn3)CC2)cc1 [Pirodavir, reference compound] | 4.81 | 4.81
